Our source for the Activity values is ChEMBL document CHEMBL2073988, “Secretory transport of methylprednisolone possibly mediated by P-glycoprotein in Caco-2 cells” (Biol Pharm Bull, 2002).

This series has as its target ATP-dependent translocase ABCB1 (Homo sapiens, UniProt P08183). As to the kind of experiment: TP_TRANSPORTER: transepithelial transport (basal to apical), inhibited by Verapamil in Caco-2 cells. In kind it is functional, cell-based. (In general: Caco-2 monolayers are a common model of the intestinal barrier.)

Sequence of ATP-dependent translocase ABCB1 (P08183 whole entry): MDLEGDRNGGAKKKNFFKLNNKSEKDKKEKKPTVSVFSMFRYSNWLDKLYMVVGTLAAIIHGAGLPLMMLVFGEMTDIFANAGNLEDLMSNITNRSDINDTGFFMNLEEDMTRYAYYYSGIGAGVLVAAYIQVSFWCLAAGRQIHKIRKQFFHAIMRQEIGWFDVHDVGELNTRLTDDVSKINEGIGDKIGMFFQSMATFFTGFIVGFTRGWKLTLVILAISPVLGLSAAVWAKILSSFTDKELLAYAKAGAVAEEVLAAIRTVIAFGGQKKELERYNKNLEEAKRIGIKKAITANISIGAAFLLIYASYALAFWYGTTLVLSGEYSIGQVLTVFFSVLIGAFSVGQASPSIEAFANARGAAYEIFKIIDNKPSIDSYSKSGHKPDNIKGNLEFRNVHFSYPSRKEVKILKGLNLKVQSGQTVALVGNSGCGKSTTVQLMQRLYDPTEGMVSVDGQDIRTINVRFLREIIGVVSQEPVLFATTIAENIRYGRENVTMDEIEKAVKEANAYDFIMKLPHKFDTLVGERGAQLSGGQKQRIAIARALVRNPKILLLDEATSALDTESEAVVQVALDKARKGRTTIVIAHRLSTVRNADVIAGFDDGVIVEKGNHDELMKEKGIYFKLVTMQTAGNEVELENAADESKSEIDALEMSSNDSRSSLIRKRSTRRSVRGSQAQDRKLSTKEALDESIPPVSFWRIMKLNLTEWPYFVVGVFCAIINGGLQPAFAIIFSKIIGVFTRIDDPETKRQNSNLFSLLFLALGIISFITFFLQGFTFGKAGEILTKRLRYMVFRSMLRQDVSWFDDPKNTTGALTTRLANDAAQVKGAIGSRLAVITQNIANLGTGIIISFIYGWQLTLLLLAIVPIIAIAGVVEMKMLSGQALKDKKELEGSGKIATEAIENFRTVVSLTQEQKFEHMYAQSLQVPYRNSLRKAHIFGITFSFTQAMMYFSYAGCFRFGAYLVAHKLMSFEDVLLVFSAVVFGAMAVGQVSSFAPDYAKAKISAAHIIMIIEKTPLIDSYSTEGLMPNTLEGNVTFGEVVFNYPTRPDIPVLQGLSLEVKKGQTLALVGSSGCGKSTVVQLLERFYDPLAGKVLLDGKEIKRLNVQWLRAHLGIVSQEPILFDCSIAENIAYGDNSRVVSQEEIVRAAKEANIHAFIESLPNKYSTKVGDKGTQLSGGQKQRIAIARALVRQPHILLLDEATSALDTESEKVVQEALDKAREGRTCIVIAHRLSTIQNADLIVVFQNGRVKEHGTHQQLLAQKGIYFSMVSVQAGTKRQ

For the compound `C[C@H]1C[C@@H]2[C@H]([C@@H](O)C[C@@]3(C)[C@H]2CC[C@]3(O)C(=O)CO)[C@@]2(C)C=CC(=O)C=C12` [METHYLPREDNISOLONE], the Activity entry was “substrate [+]”.
